Data reported in US10392383B2, “3-(1H-benzo[d]imidazol-2-yl)-1H-pyrazolo[4,3-b]pyridines and therapeutic uses thereof” (Samumed, LLC, priority 2015, dated 2019).
pEC50: −log10 of the molar value.

Columns and labels:
Type in all cases: cell-based
[1] = system: SW480 colon cancer cells; experiment: Cell viability assay (CellTiter-Blue) in SW480 cells; conditions: Homo sapiens, 96 h, four days, CellTiter-Blue, 10 μM to 0.0045 μM
How it was run: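 4-day exposure, 37 °C/5% CO2; ~2×10^3 SW480 cells/well; 8-pt 1:3 curve, 10–0.0045 μM, duplicates vs DMSO controls. Resazurin→resorufin fluorescence readout, ~3 h. EC50 by nonlinear fit; if >10 μM, % inhibition at 10 μM reported.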

[2] = system: primary human fibroblasts derived from IPF patients (LL29 cells) treated with TGF-β1; experiment: Inhibition of the fibrotic process: αSMA staining in TGF-β1-treated LL29 fibroblasts; conditions: Fibroblast; for pEC50: 96 h, LL29 fibroblasts treated with TGF-β1 (20 ng/mL), 4 days, Table 4; for inhibition at 10 µM: LL29 fibroblasts treated with TGF-β1, Table 4, read-out: percent inhibition at 10 μM (given in parentheses for EC50 >10 μM)
How it was run: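 EC50 from triplicate-well dose-response fits of % αSMA-positive cells, normalized to TGF-β1-stimulated DMSO controls, with SYTOX-positive dead cells excluded. LL29 IPF fibroblasts received compound at 10 μM–1.87 nM (0.1% DMSO) plus 20 ng/mL TGF-β1 for 4 days in 1% FBS medium; above 10 μM, % inhibition at 10 μM reported.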

[3] = system: Wnt activity (Sp5-Luc reporter, Wnt-responsive promoter) in SW480 colon carcinoma cells; experiment: Wnt activity screening assay: Sp5-Luc reporter gene assay in SW480 cells; conditions: Homo sapiens, overnight incubation, 10-point curve starting from 10 μM
How it was run: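 Wnt-driven firefly luciferase in SW480 colon carcinoma cells reports pathway activity after overnight compound exposure (10 μM top concentration, 3-fold steps). Signal is normalized to DMSO controls.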

CN(C)c1cncc(-c2ccc3[nH]nc(-c4nc5c(-c6cccs6)cccc5[nH]4)c3n2)c1 [Compound 343, N,N-Dimethyl-5-(3-(4-(thiophen-2-yl)-1H-benzo[d]imidazol-2-yl)-1H-pyrazolo[4,3-b]pyridin-5-yl)pyridin-3-amine]
pEC50 [1]: 5.63
pEC50 [2]: 5.93
pEC50 [3]: 5.76

CN(C)Cc1cncc(-c2ccc3[nH]nc(-c4nc5c(-c6cccs6)cccc5[nH]4)c3n2)c1 [Compound 349, N,N-dimethyl-1-(5-(3-(4-(thiophen-2-yl)-1H-benzo[d]imidazol-2-yl)-1H-pyrazolo[4,3-b]pyridin-5-yl)pyridin-3-yl)methanamine]
pEC50 [1]: 5.54
pEC50 [2]: 5.60
pEC50 [3]: 5.39

c1csc(-c2cccc3[nH]c(-c4n[nH]c5ccc(-c6ccncc6)nc45)nc23)c1 [Compound 354, 5-(Pyridin-4-yl)-3-(4-(thiophen-2-yl)-1H-benzo[d]imidazol-2-yl)-1H-pyrazolo[4,3-b]pyridine]
pEC50 [1]: 5.55
inhibition at 10 µM [2]: 31.2%
pEC50 [2]: < 5.00
pEC50 [3]: 5.42

O=C(Nc1cncc(-c2ccc3[nH]nc(-c4nc5c(-c6cccs6)cccc5[nH]4)c3n2)c1)C1CC1 [Compound 356, N-(5-(3-(4-(Thiophen-2-yl)-1H-benzo[d]imidazol-2-yl)-1H-pyrazolo[4,3-b]pyridin-5-yl)pyridin-3-yl)cyclopropanecarboxamide]
pEC50 [1]: 5.43
inhibition at 10 µM [2]: 0%
pEC50 [2]: < 5.00
pEC50 [3]: 5.47

Cc1ccc(-c2cccc3[nH]c(-c4n[nH]c5ccc(-c6cncc(N)c6)nc45)nc23)s1 [Compound 395, 5-(3-(4-(5-Methylthiophen-2-yl)-1H-benzo[d]imidazol-2-yl)-1H-pyrazolo [4,3-b]pyridin-5-yl)pyridin-3-amine]
pEC50 [1]: 6.49
pEC50 [2]: 6.73
pEC50 [3]: 7.11

Cc1ccc(-c2cccc3[nH]c(-c4n[nH]c5ccc(-c6cncc(NC(=O)C(C)C)c6)nc45)nc23)s1 [Compound 401, N-(5-(3-(4-(5-Methylthiophen-2-yl)-1H-benzo[d]imidazol-2-yl)-1H-pyrazolo [4,3-b]pyridin-5-yl)pyridin-3-yl)isobutyramide]
pEC50 [1]: 5.42
pEC50 [2]: 6.17
pEC50 [3]: 5.50

CCNCc1cncc(-c2ccc3[nH]nc(-c4nc5c(-c6cc(F)cc(NCCN(C)C)c6)cccc5[nH]4)c3n2)c1 [Compound 454, N^1-(3-(2-(5-(5-((Ethylamino)methyl)pyridin-3-yl)-1H-pyrazolo[4,3-b]pyridin-3-yl)-1H-benzo[d]imidazol-4-yl)-5-fluorophenyl)-N^2,N^2-dimethylethane-1,2-diamine]
pEC50 [1]: 5.83
pEC50 [2]: 5.62
pEC50 [3]: 5.47

CC(C)Nc1cncc(-c2ccc3[nH]nc(-c4nc5c(-c6cc(F)cc(NCCN(C)C)c6)cccc5[nH]4)c3n2)c1 [Compound 460, N^1-(3-Fluoro-5-(2-(5-(5-(isopropylamino)pyridin-3-yl)-1H-pyrazolo[4,3-b]pyridin-3-yl)-1H-benzo[d]imidazol-4-yl)phenyl)-N^2,N^2-dimethylethane-1,2-diamine]
pEC50 [1]: 6.29
pEC50 [2]: 5.84
pEC50 [3]: 5.98

CCCCC(=O)Nc1cncc(-c2ccc3[nH]nc(-c4nc5c(-c6cc(F)cc(NCCN(C)C)c6)cccc5[nH]4)c3n2)c1 [Compound 467, N-(5-(3-(4-(3-((2-(Dimethylamino)ethyl)amino)-5-fluorophenyl)-1H-benzo [d]imidazol-2-yl)-1H-pyrazolo[4,3-b]pyridin-5-yl)pyridin-3-yl)pentanamide]
pEC50 [1]: 5.96
pEC50 [2]: 5.93
pEC50 [3]: 5.89

CN(C)CCNc1cc(F)cc(-c2cccc3[nH]c(-c4n[nH]c5ccc(-c6cncc(CNCC7CCCC7)c6)nc45)nc23)c1 [Compound 473, N^1-(3-(2-(5-(5-(((Cyclopentylmethyl)amino)methyl)pyridin-3-yl)-1H-pyrazolo[4,3-b]pyridin-3-yl)-1H-benzo[d]imidazol-4-yl)-5-fluorophenyl)-N^2,N^2-dimethylethane-1,2-diamine]
pEC50 [1]: 5.56
pEC50 [2]: 5.84
pEC50 [3]: 5.55

CN(C)CCNc1cc(F)cc(-c2cccc3[nH]c(-c4n[nH]c5ccc(-c6ccccn6)nc45)nc23)c1 [Compound 476, N^1-(3-Fluoro-5-(2-(5-(pyridin-2-yl)-1H-pyrazolo[4,3-b]pyridin-3-yl)-1H-benzo[d]imidazol-4-yl)phenyl)-N^2,N^2-dimethylethane-1,2diamine]
pEC50 [1]: 5.84
pEC50 [2]: 5.96
pEC50 [3]: 5.83

Cc1ccncc1-c1ccc2[nH]nc(-c3nc4c(-c5cc(F)cc(CNS(C)(=O)=O)c5)cccc4[nH]3)c2n1 [Compound 481, N-(3-Fluoro-5-(2-(5-(4-methylpyridin-3-yl)-1H-pyrazolo[4,3-b]pyridin-3-yl)-1H-benzo[d]imidazol-4-yl)benzyl)methanesulfonamide]
pEC50 [1]: 5.25
pEC50 [2]: 5.68
pEC50 [3]: 5.87

CCCC(=O)Nc1cncc(-c2ccc3[nH]nc(-c4nc5c(-c6cc(F)cc(CNS(C)(=O)=O)c6)cccc5[nH]4)c3n2)c1 [Compound 493, N-(5-(3-(4-(3-Fluoro-5-(methylsulfonamidomethyl)phenyl)-1H-benzo[d]imidazol-2-yl)-1H-pyrazolo[4,3-b]pyridin-5-yl)pyridin-3-yl)butyramide]
pEC50 [1]: 5.41
pEC50 [2]: 5.58
pEC50 [3]: 5.49

CS(=O)(=O)NCc1cc(F)cc(-c2cccc3[nH]c(-c4n[nH]c5ccc(-c6cncc(CNCc7ccccc7)c6)nc45)nc23)c1 [Compound 500, N-(3-(2-(5-(5-((Benzylamino)methyl)pyridin-3-yl)-1H-pyrazolo[4,3-b]pyridin-3-yl)-1H-benzo[d]imidazol-4-yl)-5-fluorobenzyl)methanesulfonamide]
pEC50 [1]: 5.51
pEC50 [2]: 5.66
pEC50 [3]: 5.63

CS(=O)(=O)NCc1cc(F)cc(-c2cccc3[nH]c(-c4n[nH]c5ccc(-c6cncnc6)nc45)nc23)c1 [Compound 503, N-(3-Fluoro-5-(2-(5-(pyrimidin-5-yl)-1H-pyrazolo[4,3-b]pyridin-3-yl)-1H-benzo[d]imidazol-4-yl)benzyl)methanesulfonamide]
pEC50 [1]: 5.09
pEC50 [2]: 5.30
pEC50 [3]: 5.54

Fc1cccc(-c2cccc3[nH]c(-c4n[nH]c5ccc(C6CCNCC6)nc45)nc23)c1 [Compound 505, 3-(4-(3-Fluorophenyl)-1H-benzo[d]imidazol-2-yl)-5-(piperidin-4-yl)-1H-pyrazolo[4,3-b]pyridine]
pEC50 [1]: 5.83
pEC50 [2]: 5.77
pEC50 [3]: 5.50

Cn1cc(-c2ccc3[nH]nc(-c4nc5c(-c6cccc(F)c6)cccc5[nH]4)c3n2)cn1 [Compound 508, 3-(4-(3-Fluorophenyl)-1H-benzo[d]imidazol-2-yl)-5-(1-methyl-1H-pyrazol-4-yl)-1H-pyrazolo[4,3-b]pyridine]
pEC50 [1]: 5.95
pEC50 [2]: 5.95
pEC50 [3]: 6.29

Cc1ncc(-c2ccc3[nH]nc(-c4nc5c(-c6cccc(F)c6)cccc5[nH]4)c3n2)n1C [Compound 509, 5-(1,2-Dimethyl-1H-imidazol-5-yl)-3-(4-(3-fluorophenyl)-1H-benzo[d]imidazol-2-yl)-1H-pyrazolo[4,3-b]pyridine]
pEC50 [1]: 6.38
pEC50 [2]: 6.76
pEC50 [3]: 6.80

NC1CN(c2cncc(-c3ccc4[nH]nc(-c5nc6c(-c7cccc(F)c7)cccc6[nH]5)c4n3)n2)C1 [Compound 510, 1-(6-(3-(4-(3-Fluorophenyl)-1H-benzo[d]imidazol-2-yl)-1H-pyrazolo[4,3-b]pyridin-5-yl)pyrazin-2-yl)azetidin-3-amine]
pEC50 [1]: 6.02
pEC50 [2]: 5.36
pEC50 [3]: 5.49

Fc1cccc(-c2cccc3[nH]c(-c4n[nH]c5ccc(-c6cncc(OC7CCNCC7)c6)nc45)nc23)c1 [Compound 512, 3-(4-(3-Fluorophenyl)-1H-benzo[d]imidazol-2-yl)-5-(5-(piperidin-4-yloxy)pyridin-3-yl)-1H-pyrazolo[4,3-b]pyridine]
pEC50 [1]: 5.64
pEC50 [2]: 5.81
pEC50 [3]: 5.67

Fc1cccc(-c2cccc3[nH]c(-c4n[nH]c5ccc(-c6cncc(OCCN7CCCC7)c6)nc45)nc23)c1 [Compound 514, 3-(4-(3-Fluorophenyl)-1H-benzo[d]imidazol-2-yl)-5-(5-(2-(pyrrolidin-1-yl)ethoxy)pyridin-3-yl)-1H-pyrazolo[4,3-b]pyridine]
pEC50 [1]: 5.95
pEC50 [2]: 5.98
pEC50 [3]: 5.93

CN(C)CCOc1cncc(-c2ccc3[nH]nc(-c4nc5c(-c6cccc(F)c6)cccc5[nH]4)c3n2)c1 [Compound 515, 2-((5-(3-(4-(3-Fluorophenyl)-1H-benzo[d]imidazol-2-yl)-1H-pyrazolo[4,3-b]pyridin-5-yl)pyridin-3-yl)oxy)-N,N-dimethylethan-1-amine]
pEC50 [1]: 5.86
pEC50 [2]: 5.59
pEC50 [3]: 5.33

COc1cncc(-c2ccc3[nH]nc(-c4nc5c(-c6cccc(F)c6)cccc5[nH]4)c3n2)c1 [Compound 516, 3-(4-(3-Fluorophenyl)-1H-benzo[d]imidazol-2-yl)-5-(5-methoxypyridin-3-yl)-1H-pyrazolo[4,3-b]pyridine]
pEC50 [1]: 5.94
inhibition at 10 µM [2]: 0%
pEC50 [2]: < 5.00
pEC50 [3]: 6.03
